# Experimental data taken from patent publication US11634488B2, “Treatment of B cell malignancies using afucosylated pro-apoptotic anti-CD19 antibodies in combination with anti CD20 antibodies or chemotherapeutics” (INTERNATIONAL—DRUG—DEVELOPMENT—BIOTECH, priority 2017, dated 2023).
# Tested on: Human follicular cell line RL
# Assay: CDX model for FL: RL cells subcutaneously in SCID mice
# Format: in vivo
# Settings: RL xenograft in SCID mice
# Method: Human follicular cell line RL was subcutaneously injected in SCID mice, with a concentration of 5.10^6 cells per injection (200 μL). Mice were randomized when the tumors reached a mean volume of about 100 mm^3 for the 9 groups (total 45 mice). […] The endpoint was defined by animal ethics as a tumor diameter of >18 mm, significant weight loss or alteration of animal well-being. In order to assess the effectiveness of the compounds on tumorigenesis, tumor volume was measured two times a week. The sizes of the primary tumors were measured using calipers and the tumor volume (TV) was extrapolated to a sphere using the formula TV=4/3 […]×r^3, by calculating the mean radius from the two measurements. The median and standard deviation were also calculated for each group. Median is preferred to mean in order to exclude the extreme values. MAb treatment was administered by intraperitoneal injection twice a week during three weeks at 30, 10 or 1 mg/kg doses. The product was prepared in accordance with the sponsor's guidelines, i.e. diluted in PBS. Mice were sacrificed when the tumors reached a maximum volume of 1600 mm^3. The endpoints were defined by […] as a tumor diameter of >18 mm or weight loss of >10% of body weight, or when the tumors are dangerous for mice (necrosis). Statistical analysis was performed with GraphPad Prism software. GraphPad Prism combined scientific graphing, comprehensive curve fitting, understandable statistics, and data organization. The t-test (two-tailed test) was performed on the tumor volume values (mm^3) measured on the day of sacrifice.
# [1] = Day 55, 1 mg/kg each MAb, percentage of mice
substance,measurement,setting,value
rituximab,mice in complete remission,"1 mg/kg, day 45",33%
same,Complete Remission,[1],33
same,Tumor progression,[1],67
